Drawing on patent US8729081B2, “Compositions and methods for treating alcohol use disorders, pain and other diseases” (VM Discovery Inc., priority 2008, dated 2014), this text covers IC50 for 1 compound.

This test addresses T1, PKCε (h) (Homo sapiens, UniProt Q02156).
T1 construct: host or cells: insect cells
T1 sequence (Q02156 1-737): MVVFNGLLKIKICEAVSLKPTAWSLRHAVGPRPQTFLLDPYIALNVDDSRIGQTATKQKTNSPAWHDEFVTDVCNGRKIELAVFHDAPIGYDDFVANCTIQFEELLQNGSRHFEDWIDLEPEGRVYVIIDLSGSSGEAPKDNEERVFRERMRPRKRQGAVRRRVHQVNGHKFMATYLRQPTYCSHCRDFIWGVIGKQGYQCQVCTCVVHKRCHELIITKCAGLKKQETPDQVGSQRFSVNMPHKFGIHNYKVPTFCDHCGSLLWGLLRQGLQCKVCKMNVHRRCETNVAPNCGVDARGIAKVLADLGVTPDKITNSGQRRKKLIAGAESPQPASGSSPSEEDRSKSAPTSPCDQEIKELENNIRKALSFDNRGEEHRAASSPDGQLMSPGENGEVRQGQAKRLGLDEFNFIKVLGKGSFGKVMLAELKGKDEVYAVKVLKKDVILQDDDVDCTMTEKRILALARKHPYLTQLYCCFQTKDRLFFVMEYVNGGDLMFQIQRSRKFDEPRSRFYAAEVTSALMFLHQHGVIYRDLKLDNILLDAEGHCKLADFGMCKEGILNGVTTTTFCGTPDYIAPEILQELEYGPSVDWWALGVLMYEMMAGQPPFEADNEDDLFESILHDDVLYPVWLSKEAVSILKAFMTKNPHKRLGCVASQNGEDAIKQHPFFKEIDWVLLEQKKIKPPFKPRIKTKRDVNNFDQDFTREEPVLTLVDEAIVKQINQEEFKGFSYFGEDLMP
Nature of the test: In vitro PKCε kinase assay (radiometric, [γ-33P-ATP], HotSpot). In kind it is biochemical. Conditions: recombinant human PKCε, 10 μM ATP; read-out: IC50 in antagonizing the PKCε. As for the experimental part:
There are many in vitro commercially available and validated bioassays (Ma, H., et al, Expert Opin Drug Discov. 2008 June; 3(6): 607-621 and references therein) which can be used to characterize the activities of compounds of the present invention against PKCε protein kinase. Compounds can be tested against the activity of recombinant PKCε. In a final reaction volume of 25 μL, PKCε (h) (0.4 nM, Human recombinant protein expressed in insect cells. Mw=83.7 kDa) is incubated with kinase buffer (20 mM HEPES-HCl, pH 7.5, 10 mM MgCl2, 1 mM EGTA, 0.02% Brij35, 0.1 mM Na3VO4, 0.02 mg/ml BSA, 2 mM DTT, and 1% DMSO), 0.1 mg/mL phosphatidylserine, 10 μg/mL diacylglycerol, 20 μM S25-PKC peptide substrate (RFARKGSLRQKNV-OH, Mw=1561 Da), 10 mM MgAcetate and 10 μM [γ-33P-ATP] (specific activity approx. 500 cpm/pmol). The reaction is initiated by the addition of the MgATP mix. After incubation for 40 minutes at room temperature, the reaction is stopped by the addition of 5 μL of a 3% phosphoric acid solution. 10 μL of the reaction is then spotted onto a P30 filtermat and washed three times for 5 minutes in 75 mM phosphoric acid and once in methanol prior to drying and scintillation counting Control samples are incubated without inhibitor to measure maximal activity or with the general kinase inhibitor Staurosporine (5 μM) to measure complete inhibition. For each compound the % inhibition can be calculated by the formula, or by curve fits: % Inhibition=(Max activity−Activity with compound)/(Max activity−Activity with Control)*100. Compounds with inhibitory activity are assayed using at least 5 concentrations (1 nM-300 μM). Concentrations are adjusted to generate a complete dose-response curve. Each sample is assayed in duplicate and each experiment is repeated three times. Results are fitted by non-linear regression analysis to a sigmoidal dose-response curve with variable slope to calculate Hill slope, log IC50 and Imax values for each inhibitor, using the program Prism 5 (GraphPad Software, Inc., San Diego, Calif.).
Kinase profiling was performed using HotSpot technology (Reaction Biology Corp. 11 Malvern, Pa., USA). This technology is a radioisotope-based P81 filter-binding assay. Compound of the present invention were dissolved in pure DMSO to make a 10 mM stock, then diluted in pure DMSO to make a serial dilution based on the IC50 ranges. PKCε (h) (0.4 nM, human recombinant protein expressed in insect cells. Mw=83.7 kDa) and substrate (20 μM peptide substrate, [RFARKGSLRQKNV]) were diluted in the reaction buffer (20 mM HEPES-HCl, pH 7.5, 10 mM MgCl2, 1 mM EGTA, 0.02% Brij35, 0.1 mM Na3VO4, 0.02 mg/ml BSA, 2 mM DTT, and 1% DMSO), and then 5 nL of compound was delivered into PKCε (h) and substrate mixture by acoustic technology using Echo 550 (LabCyte Inc., Sunnyvale, Calif.). The reaction was initiated by the addition of [γ-33P-ATP] into the reaction mixture (final concentration was 10 μM) and stopped after at least 40 min incubation at room temperature. The unreacted free 33P-ATP was washed away before detection.
The intrinsic PKCε antagonist activity of a compound which may be used in the present invention may be determined by these assays. […] Such a result is indicative of the intrinsic activity of the compounds in use as antagonists of PKCε.

As a reminder, the IC50 is the midpoint of a concentration-inhibition curve. For `O=C(NCCCN1CCCC1)c1ccc(/C=C2\Sc3ccccc3N(Cc3ccccc3F)C2=O)cc1` [Compound 481, 4-{(Z/E)-[4-(2-fluorobenzyl)-3-oxo-3,4-dihydro-2H-1,4-benzothiazin-2-ylidene]methyl}-N-[3-(pyrrolidin-1-yl)propyl]benzamide], the half-inhibitory concentration (IC50) was in the range of 10 to 1000 nM.
